Test system: participants with SSc-RP
Test: Average duration of weekly symptomatic RP attacks (minutes)
Format: in vivo, human
Conditions: ITT Part A; for Average duration of weekly symptomatic RP attacks, Baseline, Max / Average duration of weekly symptomatic RP attacks, Baseline, Mean / Average duration of weekly symptomatic RP attacks, Baseline, Median / Average duration of weekly symptomatic RP attacks, Baseline, Min / Average duration of weekly symptomatic RP attacks, Baseline, Q1 / Average duration of weekly symptomatic RP attacks, Baseline, Q3 / Average duration of weekly symptomatic RP attacks, Baseline: last 7 days of screening period
Text: The relevant metrics measured by this tool daily are: • Study medication • SSc-RP symptoms (Reporting an attack including duration of attack) • Severity of the attack considering all symptoms of the attack e.g. tingling, numbness, pain, color changes (VAS 0-10 cm scale) • Participant's location at the time of the attack (inside home/outside home) • Selecting symptoms experienced during the attack (tingling, numbness, pain, color changes, other) • Pain rating during the attack (11-point Likert scale) • The RCS based on how much difficulty participants had with Raynaud's today, how many attacks the participant had, and how long they lasted. Participants will also be asked to consider how much pain, numbness, or other symptoms the Raynaud's caused in fingers (including painful sores), and how much the Raynaud's alone affected the use of hands today (VAS 0-10 cm scale).
The absolute change in average duration of weekly RP attacks from baseline to the end of each dosing period was and will be a secondary outcome variable. The sponsor-developed participant-informed diary was and will be used to record data. Average duration of weekly RP attacks is defined as the total duration of RP attacks divided by total number of RP attacks within the last 7 days of each dosing period. Total duration of RP attacks during the last 7 days of screening period divided by the total number of RP attacks will be used as baseline for the analysis of all periods. The variable will be calculated similar to frequency data as before.

[1] = Excluding Outliers, Baseline RCS subgroup 1 (Table B-4, stratum not given), last 7 days of dosing period, listed as Cilnidipine 10 mg
[2] = Excluding Outliers, Baseline RCS subgroup 1 (Table B-4, stratum not given), last 7 days of dosing period, listed as Cilnidipine 20 mg
[3] = Excluding Outliers, Baseline RCS subgroup 1 (Table B-4, stratum not given), last 7 days of dosing period, listed as Pooled Cilnidipine
[4] = Excluding Outliers, Baseline RCS subgroup 1 (Table B-4, stratum not given), listed as Cilnidipine 10 mg
[5] = Excluding Outliers, Baseline RCS subgroup 1 (Table B-4, stratum not given), listed as Cilnidipine 20 mg
[6] = Excluding Outliers, Baseline RCS subgroup 1 (Table B-4, stratum not given), listed as Pooled Cilnidipine
[7] = Baseline RCS subgroup 1 (Table B-3, stratum not given), last 7 days of dosing period, listed as Cilnidipine 10 mg
[8] = Baseline RCS subgroup 1 (Table B-3, stratum not given), last 7 days of dosing period, listed as Cilnidipine 20 mg
[9] = Baseline RCS subgroup 1 (Table B-3, stratum not given), last 7 days of dosing period, listed as Pooled Cilnidipine
[10] = Baseline RCS subgroup 1 (Table B-3, stratum not given), listed as Cilnidipine 10 mg
[11] = Baseline RCS subgroup 1 (Table B-3, stratum not given), listed as Cilnidipine 20 mg
[12] = Baseline RCS subgroup 1 (Table B-3, stratum not given), listed as Pooled Cilnidipine

COCCOC(=O)C1=C(C)NC(C)=C(C(=O)OC/C=C/c2ccccc2)C1c1cccc([N+](=O)[O-])c1 (stereo not drawn) [Cilnidipine, 1,4-dihydro-2,6-dimethyl,4-(3-nitrophenyl)-3,5-pyridinedicarboxylic acid 2-methoxyethyl (2 E)-3-phenyl-2-propenyl ester]
Average Duration of weekly symptomatic RP attacks, Max [1]: 31.6, 31.6 minutes | Average Duration of weekly symptomatic RP attacks, Mean [1]: 31.64 min | Average Duration of weekly symptomatic RP attacks, Min [1]: 31.6, 31.6 minutes | Average Duration of weekly symptomatic RP attacks, Q3 [1]: 31.64, 31.64 minutes | Average duration of weekly symptomatic RP attacks, Change from Baseline, Max [1]: −16.7, −16.7 minutes | Average duration of weekly symptomatic RP attacks, Change from Baseline, Min [1]: −16.7, −16.7 minutes | Average duration of weekly symptomatic RP attacks, Change from Baseline, Q1 [1]: −16.74, −16.74 minutes | Average duration of weekly symptomatic RP attacks, Percent Change from Baseline, Max [1]: −34.6, −34.6% | Average Duration of weekly symptomatic RP attacks [2]: 3.0 min | Average Duration of weekly symptomatic RP attacks, Max [2]: 30.5 min | Average Duration of weekly symptomatic RP attacks, Q1 [2]: 3.00 min | Average Duration of weekly symptomatic RP attacks, Q3 [2]: 30.45 min | Average duration of weekly symptomatic RP attacks, Change from Baseline [2]: -10.3 min | Average duration of weekly symptomatic RP attacks, Change from Baseline, Max [2]: 4.1 min | Average duration of weekly symptomatic RP attacks, Change from Baseline, Mean [2]: -3.13 min | Average duration of weekly symptomatic RP attacks, Change from Baseline, Median [2]: -3.13 min | Average duration of weekly symptomatic RP attacks, Change from Baseline, Q1 [2]: -10.33 min | Average duration of weekly symptomatic RP attacks, Change from Baseline, Q3 [2]: 4.07 min | Average duration of weekly symptomatic RP attacks, Percent Change from Baseline, Max [2]: 15.4% | Average duration of weekly symptomatic RP attacks, Percent Change from Baseline, Mean [2]: −31.05% | Average duration of weekly symptomatic RP attacks, Percent Change from Baseline, Median [2]: −31.05% | Average duration of weekly symptomatic RP attacks, Percent Change from Baseline, Min [2]: −77.5% | Average duration of weekly symptomatic RP attacks, Percent Change from Baseline, Q1 [2]: −77.50% | Average duration of weekly symptomatic RP attacks, Percent Change from Baseline, Q3 [2]: 15.41% | Average Duration of weekly symptomatic RP attacks [3]: 3.0 min | Average Duration of weekly symptomatic RP attacks, Max [3]: 31.6 min | Average Duration of weekly symptomatic RP attacks, Q1 [3]: 3.00 min | Average duration of weekly symptomatic RP attacks, Change from Baseline [3]: -16.7 min | Average duration of weekly symptomatic RP attacks, Change from Baseline, Max [3]: 4.1 min | Average duration of weekly symptomatic RP attacks, Change from Baseline, Mean [3]: -7.67 min | Average duration of weekly symptomatic RP attacks, Change from Baseline, Q1 [3]: -16.74 min | Average duration of weekly symptomatic RP attacks, Change from Baseline, Q3 [3]: 4.07 min | Average duration of weekly symptomatic RP attacks, Percent Change from Baseline, Max [3]: 15.4% | Average duration of weekly symptomatic RP attacks, Percent Change from Baseline, Mean [3]: −32.23% | Average duration of weekly symptomatic RP attacks, Percent Change from Baseline, Median [3]: −34.60% | Average duration of weekly symptomatic RP attacks, Percent Change from Baseline, Min [3]: −77.5% | Average duration of weekly symptomatic RP attacks, Percent Change from Baseline, Q1 [3]: −77.50% | Average duration of weekly symptomatic RP attacks, Percent Change from Baseline, Q3 [3]: 15.41% | Average duration of weekly symptomatic RP attacks, Baseline, Max [4]: 48.4, 48.4 minutes | Average duration of weekly symptomatic RP attacks, Baseline, Mean [4]: 48.38 min | Average duration of weekly symptomatic RP attacks, Baseline, Median [4]: 48.38 min | Average duration of weekly symptomatic RP attacks, Baseline, Min [4]: 48.4, 48.4 minutes | Average duration of weekly symptomatic RP attacks, Baseline, Q1 [4]: 48.38, 48.38 minutes | Average duration of weekly symptomatic RP attacks, Baseline, Q3 [4]: 48.38, 48.38 minutes | Average duration of weekly symptomatic RP attacks, Baseline [5]: 13.3 min | Average duration of weekly symptomatic RP attacks, Baseline, Max [5]: 26.4 min | Average duration of weekly symptomatic RP attacks, Baseline, Mean [5]: 19.86 min | Average duration of weekly symptomatic RP attacks, Baseline, Median [5]: 19.86 min | Average duration of weekly symptomatic RP attacks, Baseline, Q1 [5]: 13.33 min | Average duration of weekly symptomatic RP attacks, Baseline, Q3 [5]: 26.39 min | Average duration of weekly symptomatic RP attacks, Baseline [6]: 13.3 min | Average duration of weekly symptomatic RP attacks, Baseline, Max [6]: 48.4 min | Average duration of weekly symptomatic RP attacks, Baseline, Mean [6]: 29.37 min | Average duration of weekly symptomatic RP attacks, Baseline, Median [6]: 26.39 min | Average duration of weekly symptomatic RP attacks, Baseline, Q1 [6]: 13.33 min | Average duration of weekly symptomatic RP attacks, Baseline, Q3 [6]: 48.38 min | Average Duration of weekly symptomatic RP attacks, Max [7]: 31.6, 31.6 minutes | Average Duration of weekly symptomatic RP attacks, Min [7]: 31.6, 31.6 minutes | Average duration of weekly symptomatic RP attacks, Change from Baseline, Max [7]: −16.7, −16.7 minutes | Average duration of weekly symptomatic RP attacks, Change from Baseline, Q1 [7]: −16.74, −16.74 minutes | Average duration of weekly symptomatic RP attacks, Change from Baseline, Q3 [7]: −16.74, −16.74 minutes | Average duration of weekly symptomatic RP attacks, Percent Change from Baseline, Max [7]: −34.6, −34.6% | Average duration of weekly symptomatic RP attacks, Percent Change from Baseline, Min [7]: −34.6, −34.6% | Average duration of weekly symptomatic RP attacks, Percent Change from Baseline, Q3 [7]: −34.60, −34.60% | Average Duration of weekly symptomatic RP attacks [8]: 3.0 min | Average Duration of weekly symptomatic RP attacks, Max [8]: 30.5 min | Average Duration of weekly symptomatic RP attacks, Q1 [8]: 3.00 min | Average Duration of weekly symptomatic RP attacks, Q3 [8]: 30.45 min | Average duration of weekly symptomatic RP attacks, Change from Baseline [8]: -10.3 min | Average duration of weekly symptomatic RP attacks, Change from Baseline, Max [8]: 4.1 min | Average duration of weekly symptomatic RP attacks, Change from Baseline, Q1 [8]: -10.33 min | Average duration of weekly symptomatic RP attacks, Change from Baseline, Q3 [8]: 4.07 min | Average duration of weekly symptomatic RP attacks, Percent Change from Baseline, Max [8]: 15.4% | Average duration of weekly symptomatic RP attacks, Percent Change from Baseline, Min [8]: −77.5% | Average duration of weekly symptomatic RP attacks, Percent Change from Baseline, Q1 [8]: −77.50% | Average Duration of weekly symptomatic RP attacks [9]: 3.0 min | Average Duration of weekly symptomatic RP attacks, Max [9]: 31.6 min | Average Duration of weekly symptomatic RP attacks, Q1 [9]: 3.00 min | Average Duration of weekly symptomatic RP attacks, Q3 [9]: 31.64 min | Average duration of weekly symptomatic RP attacks, Change from Baseline [9]: -16.7 min | Average duration of weekly symptomatic RP attacks, Change from Baseline, Max [9]: 4.1 min | Average duration of weekly symptomatic RP attacks, Change from Baseline, Q1 [9]: -16.74 min | Average duration of weekly symptomatic RP attacks, Change from Baseline, Q3 [9]: 4.07 min | Average duration of weekly symptomatic RP attacks, Percent Change from Baseline, Max [9]: 15.4% | Average duration of weekly symptomatic RP attacks, Percent Change from Baseline, Median [9]: −34.60% | Average duration of weekly symptomatic RP attacks, Percent Change from Baseline, Min [9]: −77.5% | Average duration of weekly symptomatic RP attacks, Percent Change from Baseline, Q1 [9]: −77.50% | Average duration of weekly symptomatic RP attacks, Baseline, Max [10]: 48.4, 48.4 minutes | Average duration of weekly symptomatic RP attacks, Baseline, Mean [10]: 48.38 min | Average duration of weekly symptomatic RP attacks, Baseline, Median [10]: 48.38 min | Average duration of weekly symptomatic RP attacks, Baseline, Min [10]: 48.4, 48.4 minutes | Average duration of weekly symptomatic RP attacks, Baseline, Q1 [10]: 48.38, 48.38 minutes | Average duration of weekly symptomatic RP attacks, Baseline, Q3 [10]: 48.38, 48.38 minutes | Average duration of weekly symptomatic RP attacks, Baseline [11]: 13.3 min | Average duration of weekly symptomatic RP attacks, Baseline, Max [11]: 26.4 min | Average duration of weekly symptomatic RP attacks, Baseline, Mean [11]: 19.86 min | Average duration of weekly symptomatic RP attacks, Baseline, Median [11]: 19.86 min | Average duration of weekly symptomatic RP attacks, Baseline, Q1 [11]: 13.33 min | Average duration of weekly symptomatic RP attacks, Baseline, Q3 [11]: 26.39 min | Average duration of weekly symptomatic RP attacks, Baseline [12]: 13.3 min | Average duration of weekly symptomatic RP attacks, Baseline, Max [12]: 48.4 min | Average duration of weekly symptomatic RP attacks, Baseline, Mean [12]: 29.37 min | Average duration of weekly symptomatic RP attacks, Baseline, Median [12]: 26.39 min | Average duration of weekly symptomatic RP attacks, Baseline, Q1 [12]: 13.33 min | Average duration of weekly symptomatic RP attacks, Baseline, Q3 [12]: 48.38 min

Source: patent US20240398771A1, “TREATMENT OF SCLERODERMA AND RAYNAUD'S SYNDROME” (Aisa Pharma, Inc., priority 2023, published 2024)
